# Source: ChEMBL document CHEMBL3817738, “Perspectives on the Two-Pore Domain Potassium Channel TREK-1 (TWIK-Related K(+) Channel 1). A Novel Therapeutic Target?” (J Med Chem, 2016)
# Key:
# [1] = target: T1, Potassium channel subfamily K member 2 (Rattus norvegicus, UniProt Q920B6); assay: Inhibition of rat TREK1 expressed in CHO cells assessed as reversible current depression; type: cell-based
# T1 sequence (Q920B6 whole entry): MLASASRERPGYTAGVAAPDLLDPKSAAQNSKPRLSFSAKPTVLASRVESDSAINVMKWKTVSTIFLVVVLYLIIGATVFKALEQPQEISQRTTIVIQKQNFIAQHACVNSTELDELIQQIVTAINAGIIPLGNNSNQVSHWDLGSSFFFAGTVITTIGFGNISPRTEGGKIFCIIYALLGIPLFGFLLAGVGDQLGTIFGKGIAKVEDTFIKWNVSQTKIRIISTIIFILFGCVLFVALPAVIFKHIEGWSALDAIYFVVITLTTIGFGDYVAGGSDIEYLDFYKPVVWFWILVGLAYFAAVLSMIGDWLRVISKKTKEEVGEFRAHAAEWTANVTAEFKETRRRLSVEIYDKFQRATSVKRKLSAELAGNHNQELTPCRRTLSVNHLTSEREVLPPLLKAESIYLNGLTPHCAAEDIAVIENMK
# [2] = target: T2, Potassium channel subfamily K member 2 (Rattus norvegicus) (UniProt Q920B6); settings: CHO, 10 uM
# T2 sequence (whole entry): T1 sequence (Q920B6 whole entry)
# Description: Inhibition of rat TREK1 expressed in CHO cells assessed as reversible current depression at 10 uM
# [3] = target: T3, Potassium channel subfamily K member 10 (Homo sapiens, UniProt P57789); assay: Inhibition of TREK2 (unknown origin) expressed in oocytes assessed as reduction in channel currents; type: cell-based
# T3 sequence (P57789 whole entry): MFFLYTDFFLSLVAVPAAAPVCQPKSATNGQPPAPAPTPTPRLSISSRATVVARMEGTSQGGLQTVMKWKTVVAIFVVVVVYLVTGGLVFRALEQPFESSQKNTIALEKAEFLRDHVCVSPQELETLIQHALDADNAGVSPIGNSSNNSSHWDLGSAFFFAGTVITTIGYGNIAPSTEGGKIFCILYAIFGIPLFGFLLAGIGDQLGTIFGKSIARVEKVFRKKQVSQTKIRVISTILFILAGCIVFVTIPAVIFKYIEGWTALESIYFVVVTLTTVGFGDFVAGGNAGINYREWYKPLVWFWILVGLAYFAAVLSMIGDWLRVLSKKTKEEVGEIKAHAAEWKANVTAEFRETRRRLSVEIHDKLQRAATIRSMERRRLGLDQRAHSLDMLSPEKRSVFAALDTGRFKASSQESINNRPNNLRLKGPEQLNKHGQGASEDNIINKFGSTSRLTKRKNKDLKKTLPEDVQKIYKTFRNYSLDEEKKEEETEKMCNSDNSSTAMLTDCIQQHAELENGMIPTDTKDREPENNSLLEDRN
# [4] = target: T3, Potassium channel subfamily K member 10; assay: Inhibition of TREK2 (unknown origin) expressed in HEK293 cells assessed as reduction in channel currents; type: cell-based
# [5] = target: T4, Potassium channel subfamily K member 2 (Homo sapiens, UniProt O95069); assay: Inhibition of human TREK1 expressed in oocytes assessed as reversible current depression; type: cell-based
# T4 sequence (O95069 whole entry): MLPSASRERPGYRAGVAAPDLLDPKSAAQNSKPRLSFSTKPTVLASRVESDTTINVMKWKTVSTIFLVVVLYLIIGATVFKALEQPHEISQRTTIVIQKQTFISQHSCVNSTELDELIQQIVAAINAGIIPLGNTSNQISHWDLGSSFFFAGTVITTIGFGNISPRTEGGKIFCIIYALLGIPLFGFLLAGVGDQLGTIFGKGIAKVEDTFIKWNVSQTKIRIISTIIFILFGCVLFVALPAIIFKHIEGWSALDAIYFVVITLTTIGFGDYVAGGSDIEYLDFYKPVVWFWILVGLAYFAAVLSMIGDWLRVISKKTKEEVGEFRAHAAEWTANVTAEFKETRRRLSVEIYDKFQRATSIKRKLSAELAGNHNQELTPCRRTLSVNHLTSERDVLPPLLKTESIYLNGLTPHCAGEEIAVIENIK
# [6] = target: T4, Potassium channel subfamily K member 2; assay: Inhibition of human TREK1 expressed in HEK293 cells assessed as reduction in channel currents; type: cell-based
Structure (SMILES),IC50 [1] [µM],inhibition [2] [%],IC50 [3] [µM],IC50 [4] [µM],IC50 [5] [µM],IC50 [6] [µM]
CCCC[C@@H]1OC(=O)c2ccccc21 [(3S)-BUTYLPHTHALIDE],0.06,70,–,–,–,–
COc1ccccc1OCCNCC(O)COc1cccc2[nH]c3ccccc3c12 (stereo unspecified) [CARVEDILOL],–,–,24,7.6,20.3,1.6
